The record followed here is patent US8394377B2, “Methods for treating cancer using combination therapy” (The Regents of the University of Colorado, priority 2008, dated 2013).

Each structure is given as a SMILES string.

What all share (assay type): cell-based
Data set [1] in a line: Percent viability of treated MCF7 ADR cells (flow cytometry). Conditions: human, 5 mg/ml DCA, 0.1 mg/ml Etomoxir, or both, time point (24 or 48 hrs) not given. The method, then:
(§1) 1. Cell Culture Conditions: The MCF7 and MCF7 ADR cell lines were purchased from American Type Culture Collection, were thawed, and grown in RPMI 1640 medium supplemented with standard supplements, including 10% fetal calf serum, gentamycin, penicillin, streptomycin, sodium pyruvate, HEPES buffer, 1-glutamine, and 2-ME.
(§2) 2. Methods: Cells were plated into a 12 well plate with 4 mis total volume containing approximately 0.6×10^6/well for MCF7 cells and 0.8×10^6/well for MCF7 ADR cells. Treatment groups included no treatment as control; 5 mg/ml Dichloroacetate; 0.1 mg/ml Etomoxir; Both 5 mg/ml DCA and 0.1 mg/ml Etomoxir.
(§3) The cells were incubated at 37° C. in an atmosphere containing 5% CO2 and approximately 92% humidity. The cells were incubated for 24 and 48 hours. At each time point, the cells from that experimental time were harvested and stained for flow cytometric analysis of cell surface expression of HER-2/neu using anti-human HER-2 Fitc. (BD biosciences, Catalogue #340553).
In general terms: In flow cytometry, cells or beads pass a laser one at a time.

Data set [2] in a line: Percent viability of treated MCF7 cells (flow cytometry). The settings on record: human, 5 mg/ml DCA, 0.1 mg/ml Etomoxir, or both, time point (24 or 48 hrs) not given. As to the method:
as §1, §2, §3

Another data set relates to HER-2 on MCF7 ADR cells. Briefly: Cell surface HER-2 expression by flow cytometry with FITC anti-human HER-2. As to the method:
as §1, §2, §3
Harvested cells were stained using standard fixed staining procedure that called for a 1:5 dilution of Fitc-anti-human HER-2 or isotype control. […] Samples were acquired and analyzed on a Coulter Excel Flow Cytometer. […]
The results in the Figures are expressed in histogram analyses. The Y axis represents cell number of the 5000 live cells versus the X axis which is a reflection of relative Fitc fluorescence. […]

For `O=C(O)C(Cl)Cl` [DCA, Dichloroacetate], the values for the viability in data set [1] and in data set [2] were 58% and 42%, respectively.
Take `CCOC(=O)C1(CCCCCCOc2ccc(Cl)cc2)CO1` (stereo not drawn) [Etomoxir, 2-(6-(4-chlorophenoxy)-hexyl)-oxirane-2-carboxylic acid ethyl ester]: the values for the viability in data set [1] and in data set [2] were 66% and 78%, respectively. The HER-2 expression entry in the data set with HER-2 on MCF7 ADR cells (HER-2 lo/negative MCF7-Adr cells, as shown in the figures) was “major increase”. Further, the “HER-2 cell surface expression” value with HER-2 on MCF7 ADR cells (MCF7 ADR cells, 48 hours, 0.1 mg/ml Etomoxir) was “noticeable Increase”.
